Assays:
[1] = system: human beta-coronavirus OC43; assay: microbe, parasite or virus in culture; type: cell-based; conditions: OC43 in HeLa cells, 6 days at 33° C., class symbols; read-out: EC50
[2] = system: SARS-CoV-2-GHB-03021/2020; assay: SARS-CoV-2 Infection Model in Huh7 Cells; type: cell-based; conditions: SARS-CoV-2, day 4 p.i., MTS, class symbols, read-out: Huh-7 (EC50)
Vero E6-eGFP cells = conditions: read-out: VeroE6 + CP (CC50); Vero E6-eGFP cells with CP-100356, absence of virus, MTS; numeric bounds
Huh7 cells = conditions: read-out: Huh-7 (CC50), MTS, numeric bounds
3CLpro [3] = target: T1, 3CLpro (Severe acute respiratory syndrome coronavirus 2, UniProt P0DTD1); assay: SARS-CoV-2 3CLpro protease assay (duplex, SAMDI-MS); type: biochemical; parameters: For the duplex assay, 3CLpro and HRV3C was added; conditions: 3CLpro, 30 mins preincubation, class symbols; read-out: SARS-Cov-2 IC50
human cathepsin L = target: T2, human cathepsin L (Homo sapiens, UniProt P07711); assay: cathepsin L assay; type: biochemical; conditions: 10 pM human cathepsin L, Z-FR-AMC 2 μM, class symbols
T2 construct: purchased R&D Systems
T2 sequence (P07711 114-333): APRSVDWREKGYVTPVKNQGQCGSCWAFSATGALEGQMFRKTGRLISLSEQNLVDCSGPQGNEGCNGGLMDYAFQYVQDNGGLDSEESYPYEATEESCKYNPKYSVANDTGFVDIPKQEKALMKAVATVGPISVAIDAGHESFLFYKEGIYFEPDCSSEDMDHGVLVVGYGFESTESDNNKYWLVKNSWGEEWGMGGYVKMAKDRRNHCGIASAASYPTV
Summary of the method: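 Human cathepsin L at 10 pM was preincubated 30 min with compound, then reaction started with Z-FR-AMC (2 μM final). Fluorescence (355/460 nm) read every 2 min for 30 min; IC50 from four-parameter curve fit.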

HeLa cells = assay: Cytotoxicity plates without OC43 virus (cell-titer-glo); type: cell-based, human; conditions: class symbols
Summary of the method: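 HeLa cells seeded overnight, then treated with serially diluted compounds in 2% FBS EMEM, uninfected, in parallel with the OC43 antiviral plates. Incubated 6 days at 33 °C; viability read by CellTiter-Glo luminescence.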

3CLpro [4] = target: T1, 3CLpro; conditions: cited from earlier work
SARS-CoV-2 = conditions: cited from earlier work

Row | SMILES | EC50 [1] | EC50 [2] | CC50 (Vero E6-eGFP cells) | CC50 (Huh7 cells) | IC50 (3CLpro [3]) | IC50 (human cathepsin L) | CC50 (HeLa cells) | inhibitory effect on the 3CLpro (3CLpro [4]) | inhibition of SARS-CoV-2 (SARS-CoV-2; in VeroE6, A549-ACE2 and/or HeLa-ACE2) | antiviral effect (SARS-CoV-2; when TMPRSS2 was expressed in A549-ACE2)
1 | O=C1NCC[C@H]1C[C@H](NC(=O)[C@@H]1[C@H]2CCC[C@H]2CN1C(=O)c1cc2c([nH]1)C1CCC2C1)C(=O)CO (stereo partly drawn) [Compound 157, (1S,3aR,6aS)-2-{3-azatricyclo[5.2.1.0^{2,6}]deca-2(6),4-diene-4-carbonyl}-N-[(2S)-4-hydroxy-3-oxo-1-[(3S)-2-oxopyrrolidin-3-yl]butan-2-yl]-hexahydro-1H-cyclopenta[c]pyrrole-1-carboxamide] | 0.1 to 1 µM | 1 to 10 µM | > 50 µM | > 50 µM | 0.02 to 0.2 µM | ≥ 10 µM | > 10 µM |  |  | 
2 | CN1CCN(C(=O)N[C@@H](Cc2ccccc2)C(=O)N[C@H](/C=C/S(=O)(=O)c2ccccc2)CCc2ccccc2)CC1 [Compound K117777] |  |  |  |  |  |  |  | lacks an inhibitory effect | potent inhibition | abolished
